Bridge positions count the residues as written; N and C are the ends. Peptide text beside a SMILES is read from it.
Columns and labels:
porcine pepsin = porcine pepsin (Sus scrofa, UniProt P00791); assay: Peptide resistance to proteolytic digestion by pepsin; format: in vitro ADME; settings: 50 U of porcine pepsin in simulated gastric fluid at pH 1.0, 30 minutes at 37° C.
Protocol: (§1) This example illustrates peptide stability under various stress conditions such as high temperature, low pH, reducing agents, and proteases. To determine resistance to high temperatures, cystine-dense peptides (CDPs) were incubated at 0.5 mM in PBS at 75° C. or 100° C. for 1 h and pelleted, and the supernatant was analyzed with reversed-phase chromatography (RPC). To determine resistance to proteolytic digestion, CDPs were mixed with 50 U of porcine pepsin, in simulated gastric fluid at pH 1.0, or 50 U of porcine trypsin in PBS, incubated for 30 minutes at 37° C. and analyzed with RPC. Oxidized and reduced forms (prepared through addition 10 mM DTT) were compared. Circular Dichroism spectroscopy was used in order to measure the secondary structure of peptides with a Jasco J-720W spectropolarimeter in a cell with a 1.0-mm path length, and CDPs were diluted into 20 mM phosphate buffer, pH 7.4, at a concentration of 15-25 μM. These conditions were expected to denature or degrade conventional globular proteins and many peptides. In TABLE 10, “high” resistance indicated a high amount of the peptide remained or was retained as unmodified under the given experimental conditions and “low” resistance indicated a low amount of the peptide remained or was retained unmodified under the given experimental conditions. […]

porcine trypsin = porcine trypsin (Sus scrofa, UniProt P00761); assay: Peptide resistance to proteolytic digestion by trypsin; format: in vitro ADME; settings: 50 U of porcine trypsin in PBS, 30 minutes at 37° C.
Chain of porcine trypsin (P00761 9-231): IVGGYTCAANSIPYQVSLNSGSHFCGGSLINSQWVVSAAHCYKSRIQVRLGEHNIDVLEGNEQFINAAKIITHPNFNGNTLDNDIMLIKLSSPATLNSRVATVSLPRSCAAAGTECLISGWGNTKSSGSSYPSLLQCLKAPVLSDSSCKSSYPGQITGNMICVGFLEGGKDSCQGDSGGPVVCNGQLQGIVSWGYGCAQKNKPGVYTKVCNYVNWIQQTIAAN
Protocol: as §1

Chain of porcine pepsin (P00791 60-385): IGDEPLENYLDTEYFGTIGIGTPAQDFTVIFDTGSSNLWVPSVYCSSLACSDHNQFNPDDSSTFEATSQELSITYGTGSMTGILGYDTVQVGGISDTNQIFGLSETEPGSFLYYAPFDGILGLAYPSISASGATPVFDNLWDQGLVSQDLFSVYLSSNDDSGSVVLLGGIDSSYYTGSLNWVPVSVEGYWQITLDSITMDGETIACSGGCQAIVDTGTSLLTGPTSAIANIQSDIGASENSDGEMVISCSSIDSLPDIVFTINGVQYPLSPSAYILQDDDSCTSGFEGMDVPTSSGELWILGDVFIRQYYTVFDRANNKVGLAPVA

Structure (SMILES): CC[C@H](C)[C@@H]1NC(=O)[C@@H]2CSSC[C@H](NC(=O)[C@H](CCCCN)NC(=O)[C@@H](NC(=O)[C@H](CC(N)=O)NC(=O)[C@@H](NC(=O)[C@@H]3CCCN3C(=O)[C@@H](NC(=O)CNC(=O)[C@H](CO)NC(=O)CN)C(C)C)[C@@H](C)CC)C(C)C)C(=O)N[C@@H](CCCNC(=N)N)C(=O)NCC(=O)N[C@@H](CO)C(=O)N[C@@H](CCCNC(=N)N)C(=O)N[C@@H](CC(=O)O)C(=O)N[C@H]3CSSC[C@H](NC(=O)[C@H](CCCCN)NC(=O)[C@H](CO)NC(=O)[C@H](CC(N)=O)NC1=O)C(=O)N[C@@H](Cc1c[nH]cn1)C(=O)N[C@H](C(=O)N[C@H](C(=O)N1CCC[C@H]1C(=O)O)[C@@H](C)O)CSSC[C@H](NC(=O)[C@@H]1CCCN1C(=O)[C@H](CC(=O)O)NC(=O)[C@H](CC(C)C)NC3=O)C(=O)N[C@@H](CCCCN)C(=O)N[C@@H](CCCCN)C(=O)N[C@@H](C)C(=O)NCC(=O)N[C@@H](CCSC)C(=O)N[C@@H](CCCNC(=N)N)C(=O)N[C@@H](Cc1ccccc1)C(=O)NCC(=O)N[C@@H](CCCCN)C(=O)N2 [compound 150] (H-GSGVPINVKCRGSRDCLDPCKKAGMRFGKCINSKCHCTP-OH; disulfide 10-30, 16-35, 20-37; N-terminus and C-terminus assumed)
- Resistance to Pepsin (porcine pepsin): High
- Resistance to Trypsin (porcine trypsin): High

From US20210171589A1, “TRUNCATED CARTILAGE-HOMING PEPTIDES AND PEPTIDE COMPLEXES AND METHODS OF USE THEREOF” (BLAZE BIOSCIENCE, INC., priority 2018, published 2021)
